One compound from EP4741397A1, “FUSED TRICYCLIC COMPOUND, AND PREPARATION METHOD THEREFOR AND USE THEREOF” (Shenzhen Zhongge Biological Technology Co., Ltd., priority 2023, dated 2025) can be followed below.

Data set [1] can be described thus: Kinetic solubility evaluation. It is filed as physicochemical. The conditions noted are these: pbs, pH 7.4, aqueous buffer. The protocol:
10 mM stock solution was prepared by dissolving the test compound in DMSO. 100 mM K2HPO4 solution was prepared by adding 8.71 g K2HPO4 to 500 mL deionized water. 100 mM KH2PO4 solution was prepared by adding 2.05 g KH2PO4 to 150 mL deionized water. 405 mL of 100 mM K2HPO4 and 95 mL of 100 mM KH2PO4 were mixed and adjusted to pH 7.4 with 100 mM K2HPO4/KH2PO4 solution.
16 µL of 10 mM compound stock solution was added to 784 µL of PBS buffer (n = 3) by 96 well plate, and the plate was sealed and shaken at 25°C, 1000 rpm for 1.5 h. After incubation, the solution was transferred to a filter plate. All samples were filtered. 5 µL of the filtrate was taken, added to 5 µL of DMSO and 490 µL acetonitrile aqueous solution containing internal standard (1:1) and mixed. Then the mixed solution was diluted with acetonitrile aqueous solution containing internal standard (1:1) according to the properties of the compound and its response in the mass spectrometer. The dilution factor was adjusted according to the solubility value and UPLC-MS/MS signal response.

Data set [2] can be described thus: Cell membrane permeability (cell monolayer, A to B and B to A). Type of data set: in vitro ADME. The conditions noted are these: 120 min, 37°C. The protocol: Test compounds were diluted from 10 mM stock solution to a concentration of 10 µM in transport buffer (HBSS + BSA) and applied to the apical or basolateral side of the cell monolayer. The permeability of the test compounds was determined in both direction of from A to B and B to A directions after 120 min incubation at 37°C, 5% CO2 and 95% relative humidity. In addition, the efflux ratio of each compound was determined. The analyte and reference compounds were quantified by LC-MS/MS based on the analyte/IS peak area ratio.

Data set [3] is described as follows: In vivo brain permeability (plasma and cerebrospinal fluid PK). The conditions noted are these: CD1 mice, PO 10 mg/kg; for AUC(0-inf) / Cmax / Tmax / half-life: mouse. The protocol:
The test compound was dissolved in the vehicle to prepare a clear solution or a homogeneous suspension. Three mice (CD1 mice) per group were orally administered (PO) at 10 mg/kg. Plasma and cerebrospinal fluid were collected at 1 h, 4 h, and 8 h after oral administration and quantitatively analyzed by LC/MS/MS. Conclusion: At least some of the compounds of the present application have reached very high levels of Cmax and AUC in cerebrospinal fluid and have good in vivo brain permeability. […] Table 7 Plasma and cerebrospinal fluid PK of compound 25

Each structure is given as a SMILES string. A value given as a limit tells only on which side of the number the result lay.

As for `O=C1C(Cc2ccc(Cl)c(F)c2)CCCN1c1nc2c([nH]1)COc1cnccc1-2` (stereo not drawn) [Cpd. 25], the solubility – broadly, how much of the substance goes into solution per volume – at […] in data set [1] is > 50 µg/mL. Besides, the efflux ratio (commonly a quotient of directional permeabilities that is used to spot active efflux) at 2 h, 10 µM in data set [2] amounted to 0.9. Further, the apparent permeability from apical to basolateral (Papp A→B) (commonly how fast a substance crosses the layer from the apical side) at 2 h, 10 µM in data set [2] (A to B) stood at 7.56 ×10⁻⁶ cm/s. In data set [3], this compound showed an AUCbrain/AUCplasma of 0.71. In data set [3] (Cerebrospinal fluid PK), the area under the curve AUC(0-inf) (commonly total exposure, with the tail of the curve extrapolated) was determined as 6900 ng·h/mL; the highest level (Cmax) was 2200 ng/mL; the Tmax (commonly the time at which the peak concentration occurs) was determined as 1 h; the half-life (usually how long it takes for the measured level to halve) is 1.41 h. In addition, in data set [3] (Plasma PK), the AUC(0-inf) amounted to 9700 ng·h/mL; the maximum concentration (Cmax) (in general, the maximum level reached in the sampled fluid or tissue) came out at 3090 ng/mL; the Tmax stood at 1 h; the half-life was 1.4 h.
